Drawing on patent publication US20060004028A1, “Novel PARP inhibitor” (MOCHIDA PHARMACEUTICAL CO., LTD., priority 2002, published 2006), this text covers IC50 and melting point for 31 compounds.

As a reminder, the IC50 is the concentration that inhibits the measured activity by half. Low values mean inhibition by little substance, high ones a need for much substance. The melting point is the temperature of the solid-liquid transition.

One data set has as its target T1, PARP (Homo sapiens, UniProt P09874).
T1 construct: purchased Travigen (Trevigen) 4669-96-K
Kind of data set: Measurement of PARP inhibitory activity (PARP Inhibition Assay kit, ADP-ribosylated histone). The format is biochemical. The note with it: HSA PARP Enzyme, histone-coated plate, absorbance at 450 nm. The procedure: PARP activity is determined by measuring the amount of ADP-ribosylated histone protein applied onto an assay plate according to the manual of a measurement kit “PARP Inhibition Assay” (produced by Travigen, catalog number: 4669-96-K). Specifically, 25 μL/well of “2×PARP cocktail” (containing 800 μM of NAD, 50 μM of biotinylated NAD, and denatured DNA) was added to each well of assay plates (96-well multiplate) previously coated with histone protein. Further added was 12.5 μL/well of test compound diluted with “PARP Buffer” (50 mM Tris-hydrochloric acid buffer (pH 8.0) containing 25 mM of MgCl2) and 12.5 μL/well (final concentration: 0.3 unit/50 μL/well) of “HSA PARP Enzyme” diluted with “PARP Buffer” in that order. The mixture was allowed to react at room temperature for 30 minutes. Enzyme reaction of PARP was suspended by discarding the reaction solution and rinsing with a phosphate buffer. Then, 50 μL/well of “Strep-HRP” (streptavidin-labeled horseradish peroxidase) was added and allowed to react at 37° C. for 20 to 30 minutes to bind to biotin-labeled ADP-ribosylated histone. After the reaction solution was discarded, resultings were rinsed with a phosphate buffer, and 50 μL/well of calorimetric substrate TACS-Sapphire was added to the mixture to react at room temperature for 5 to 10 minutes in the dark.
The reaction was terminated by adding 50 μL/well of 0.2 N hydrochloric acid solution, and the absorbance at 450 nm was measured with a microplate reader.

T1 sequence (P09874 whole entry): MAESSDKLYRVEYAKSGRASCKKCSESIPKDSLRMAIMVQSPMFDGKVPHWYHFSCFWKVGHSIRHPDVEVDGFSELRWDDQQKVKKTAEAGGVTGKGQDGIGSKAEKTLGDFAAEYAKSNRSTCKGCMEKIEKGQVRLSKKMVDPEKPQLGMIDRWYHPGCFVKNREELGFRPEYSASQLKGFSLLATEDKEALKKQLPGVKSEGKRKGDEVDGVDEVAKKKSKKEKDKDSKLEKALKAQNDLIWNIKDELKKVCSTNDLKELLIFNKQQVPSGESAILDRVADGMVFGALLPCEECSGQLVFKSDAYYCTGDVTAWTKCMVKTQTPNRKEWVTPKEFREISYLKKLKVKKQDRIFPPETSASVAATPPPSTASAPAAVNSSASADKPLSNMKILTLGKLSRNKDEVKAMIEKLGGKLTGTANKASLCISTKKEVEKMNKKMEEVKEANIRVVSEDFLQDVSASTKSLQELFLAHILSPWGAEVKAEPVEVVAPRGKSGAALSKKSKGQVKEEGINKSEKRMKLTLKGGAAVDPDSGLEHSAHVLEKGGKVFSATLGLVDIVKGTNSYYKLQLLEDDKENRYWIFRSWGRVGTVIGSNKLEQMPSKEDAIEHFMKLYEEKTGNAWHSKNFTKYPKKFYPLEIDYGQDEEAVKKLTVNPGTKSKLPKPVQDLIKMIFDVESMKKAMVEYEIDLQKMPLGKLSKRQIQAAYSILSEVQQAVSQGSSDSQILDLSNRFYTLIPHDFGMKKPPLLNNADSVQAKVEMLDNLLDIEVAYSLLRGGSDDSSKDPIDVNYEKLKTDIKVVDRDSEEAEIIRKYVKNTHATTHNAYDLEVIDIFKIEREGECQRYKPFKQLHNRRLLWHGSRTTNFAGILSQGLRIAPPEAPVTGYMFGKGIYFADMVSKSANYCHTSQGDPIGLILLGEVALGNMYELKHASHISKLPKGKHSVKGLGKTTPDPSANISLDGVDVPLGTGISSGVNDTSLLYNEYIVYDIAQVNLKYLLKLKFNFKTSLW

For the compound `CN(C)c1ccc([C@@H]2NC(=O)c3cccc4c3N2CC[C@@H]4N)cc1` (racemic) [Example 129, Mixture of (3R,7S)-7-amino-3-(4-N,N-dimethylaminophenyl)-6,7-dihydro-3H,5H-pyrido[3,2,1-ij]quinazoline-1(2H)-one and (3S,7R)-7-amino-3-(4-N,N-dimethylaminophenyl)-6,7-dihydro-3H,5H-pyrido[3,2,1-ij]quinazoline-1(2H)-one], the melting point fell in the range of 237.8 to 239.7 °C. At PARP, this compound came in with a 50% inhibitory concentration (IC50) of 49 nM.

As for `COc1ccc2cc(C3NC(=O)c4cccc5c4N3CCC5=O)ccc2c1` (centres unmarked) [Example 47, 3-(6-methoxynaphthalene-2-yl)-6,7-dihydro-3H,5H-pyrido[3,2,1-ij]quinazoline-1,7(2H)-dione], the melting point lay in the range of 191.4 to 195.5 °C.

Compound `Cc1ccc(C2NC(=O)c3cccc4c3N2CCC4=NO)cc1` (centres unmarked) [Example 77, 7-hydroxyimino-3-(4-methylphenyl)-6,7-dihydro-3H,5H-pyrido[3,2,1-ij]quinazoline-1(2H)-one] showed a melting point of 215.4 to 219 °C.

`COc1ccc(C2NC(=O)c3cccc4c3N2CCC4=NO)cc1C` (centres unmarked) [Example 57, 7-hydroxyimino-3-(3-methyl-4-methoxyphenyl)-6,7-dihydro-3H,5H-pyrido[3,2,1-ij]quinazoline-1(2H)-one]: the melting point fell in the range of 236 to 243.3 °C.

The compound `CON=C1CCN2c3c(cccc31)C(=O)NC2c1ccc(OCCCN(C)C)cc1` (centres unmarked) [Example 53, 7-methoxyimino-3-[4-(3-N,N-dimethylaminopropoxy)phenyl]-6,7-dihydro-3H,5H-pyrido[3,2,1-ij]quinazoline-1(2H)-one] gave a melting point of 164.3 to 167 °C.

For `COc1ccc(C2NC(=O)c3cccc4c3N2CCC4O)cc1` (centres unmarked) [Example 2, 7-hydroxy-3-(4-methoxyphenyl)-6,7-dihydro-3H,5H-pyrido[3,2,1-ij]quinazoline-1(2H)-one], the melting point is 95.7 to 99.6 °C.

In turn, `COc1ccc(C2NC(=O)c3cccc4c3N2CCC4NCc2ccc(N(C)C)cc2)cc1` (centres unmarked) [Example 13, 7-(4-N,N-dimethylaminophenyl)methylamino-3-(4-methoxyphenyl)-6,7-dihydro-3H,5H-pyrido[3,2,1-ij]quinazoline-1(2H)-one] displayed a melting point of 73.2 to 75.6 °C.

With `O=C1CCN2c3c1cccc3C(=O)NC2c1ccc(C(F)(F)F)cc1` (centres unmarked) [Example 35, 3-(4-trifluoromethylphenyl)-6,7-dihydro-3H,5H-pyrido[3,2,1-ij]quinazoline-1,7(2H)-dione], the melting point lay in the range of 203.1 to 208 °C.

“Mixture of (3S,7S)-7-amino-3-(3,4-difluorophenyl)-6,7-dihydro-3H,5H-pyrido[3,2,1-ij]quinazoline-1(2H)-one and (3R,7R)-7-amino-3-(3,4-difluorophenyl)-6,7-dihydro-3H,5H-pyrido[3,2,1-ij]quinazoline-1(2H)-one [Example 122]” returned an IC50 at PARP of 120 nM.

Turning to `CON=C1CCN2c3c(cccc31)C(=O)NC2c1ccc([N+](=O)[O-])cc1` (centres unmarked) [Example 71, 7-methoxyimino-3-(4-nitrophenyl)-6,7-dihydro-3H,5H-pyrido[3,2,1-ij]quinazoline-1(2H)-one], the melting point lay in the range of 112.9 to 116.4 °C.

As to `CON=C1CCN2c3c(cccc31)C(=O)NC2c1ccc(OC)c(O)c1` (centres unmarked) [Example 55, 3-(3-hydroxy-4-methoxyphenyl)-7-methoxyimino-6,7-dihydro-3H,5H-pyrido[3,2,1-ij]quinazoline-1(2H)-one], the melting point was in the range of 185.3 to 189.8 °C.

In the case of `COc1ccc(C2NC(=O)c3cccc4c3N2CCC4NC(=O)C2CCN(C)CC2)cc1` (centres unmarked) [Example 134, 7-(1-methylpiperidine-4-yl)carbonylamino-3-(4-methoxy-phenyl)-6,7-dihydro-3H,5H-pyrido[3,2,1-ij]quinazoline-1(2H)-one], the melting point lay in the range of 252.3 to 253.1 °C.

`COc1ccc([C@H]2NC(=O)c3cccc4c3N2CC[C@@H]4N)cc1` [Example 6, (−)-(3S,7S)-7-amino-3-(4-methoxyphenyl)-6,7-dihydro-3H,5H-pyrido[3,2,1-ij]quinazoline-1(2H)-one]: the melting point is 110 to 112.7 °C.

`CON=C1CCN2c3c(cccc31)C(=O)NC2c1ccc(OC)c(Br)c1` (centres unmarked) [Example 54, (3-bromo-4-methoxyphenyl)-7-methoxyimino-6,7-dihydro-3H,5H-pyrido[3,2,1-ij]quinazoline-1(2H)-one]: the melting point lay in the range of 218.7 to 221.7 °C.

Compound `O=C1CCN2c3c1cccc3C(=O)NC2c1ccccc1` (centres unmarked) [Example 15, 3-(phenyl)-6,7-dihydro-3H,5H-pyrido[3,2,1-ij]quinazoline-1,7(2H)-dione] registered a melting point of 172.1 to 180.4 °C.

In turn, `O=C1NC(c2ccc(Cl)cc2)N2CCC(=NO)c3cccc1c32` (centres unmarked) [Example 78] registered a melting point of 210.6 to 217.2 °C.

For `CCOC(=O)COc1ccc(C2NC(=O)c3cccc4c3N2CCC4=NO)cc1` (centres unmarked) [Example 59, 3-(4-ethoxycarbonylmethoxyphenyl)-7-hydroxyimino-6,7-dihydro-3H,5H-pyrido[3,2,1-ij]quinazoline-1(2H)-one], the melting point is 198.6 to 203.3 °C.

As for `Cc1ccc(C2NC(=O)c3cccc4c3N2CCC4=O)cc1` (centres unmarked) [Example 18, 3-(4-methylphenyl)-6,7-dihydro-3H,5H-pyrido[3,2,1-ij]quinazoline-1,7(2H)-dione], the melting point was in the range of 172.1 to 175.8 °C.

Regarding `COc1ccc(C2NC(=O)c3cccc4c3N2CCC4=NO)cc1Cl` (centres unmarked) [Example 70, 3-(3-chloro-4-methoxyphenyl)-7-hydroxyimino-3-6,7-dihydro-3H,5H-pyrido[3,2,1-ij]quinazoline-1(2H)-one], the melting point was 220 °C (dec.).

`COc1ccc(C2NC(=O)c3cccc4c3N2CCC4NC(=O)CCN2CCCCC2)cc1` (centres unmarked) [Example 133, 7-[3-(piperidine-1-yl)propanoyl]amino-3-(4-methoxyphenyl)-6,7-dihydro-3H,5H-pyrido[3,2,1-ij]quinazoline-1(2H)-one] returned a melting point of 186 to 187.2 °C.

For `CON=C1CCN2c3c(cc(F)cc31)C(=O)NC2c1ccc(OC)cc1` (centres unmarked) [Example 51, 9-fluoro-7-methoxyimino-3-(4-methoxyphenyl)-6,7-dihydro-3H,5H-pyrido[3,2,1-ij]quinazoline-1(2H)-one], the melting point was in the range of 200.1 to 202.9 °C.

On to `COc1ccc(C2NC(=O)c3cccc4c3N2CCC4=O)cc1` (centres unmarked) [Example 1, 3-(4-methoxyphenyl)-6,7-dihydro-3H,5H-pyrido[3,2,1-ij]quinazoline-1,7(2H)-dione], for which the melting point lay in the range of 137.4 to 144.2 °C.

Take `COc1ccc(C2NC(=O)c3ccc(Cl)c4c3N2CCC4=O)cc1` (centres unmarked) [Example 25, 8-chloro-3-(4-methoxyphenyl)-6,7-dihydro-3H,5H-pyrido[3,2,1-ij]quinazoline-1,7(2H)-dione]: the melting point fell in the range of 209.4 to 213.1 °C.

Compound `CON=C1CCN2c3c(cccc31)C(=O)NC2Cc1ccc(OC)cc1` (centres unmarked) [Example 69, 7-methoxyimino-3-(4-methoxyphenyl)methyl-6,7-dihydro-3H,5H-pyrido[3,2,1-ij]quinazoline-1(2H)-one] registered a melting point of 190 to 195.9 °C.

`COc1ccccc1C1NC(=O)c2cccc3c2N1CCC3=O` (centres unmarked) [Example 43, 3-(2-methoxyphenyl)-6,7-dihydro-3H,5H-pyrido[3,2,1-ij]quinazoline-1,7(2H)-dione] registered a melting point of 214.7 to 219.5 °C.

Turning to `O=C1CCN2c3c1cccc3C(=O)NC2c1ccc(Br)cc1` (centres unmarked) [Example 21, 3-(4-bromophenyl)-6,7-dihydro-3H,5H-pyrido[3,2,1-ij]quinazoline-1,7(2H)-dione], the melting point is 206.2 to 214 °C.

Regarding `COc1ccc(C2NC(=O)c3cccc4c3N2CCNC4=O)cc1` (centres unmarked) [Example 14, 3-(4-methoxyphenyl)-5,6-dihydro-3H-pyrimido[5,6,1-jk][1,4]benzdiazepin-1,8(2H,7H)-dione], the melting point was 279.9 °C (dec.).

`O=C1CCN2c3c1cccc3C(=O)NC2c1cccnc1` (centres unmarked) had a melting point of 190 to 191.6 °C.

`N#Cc1ccc(C2NC(=O)c3cccc4c3N2CCC4=O)cc1` (centres unmarked) [Example 16, 3-(4-cyanophenyl)-6,7-dihydro-3H,5H-pyrido[3,2,1-ij]quinazoline-1,7(2H)-dione] showed a melting point of 134 to 146.9 °C.

Turning to `CN(C)CCCOc1ccc(C2NC(=O)c3cccc4c3N2CCC4=O)cc1` (centres unmarked) [Example 26, 3-(4-(3-N,N-dimethylaminopropoxy)phenyl)-6,7-dihydro-3H,5H-pyrido[3,2,1-ij]quinazoline-1,7(2H)-dione], the melting point was 174.3 to 178.2 °C.

`O=C1NC(c2ccc(F)cc2)N2CCC(=NO)c3cccc1c32` (centres unmarked) [Example 76, 3-(4-fluorophenyl)-7-hydroxyimino-6,7-dihydro-3H,5H-pyrido[3,2,1-ij]quinazoline-1(2H)-one]: the melting point lay within 247.1 to 252.3 °C.
